These results are taken from patent publication US9238658B2, “Substituted piperidinyl-carboxamide derivatives useful as SCD 1 inhibitors” (Janssen Pharmaceutica NV, priority 2011, dated 2016).

Test [1] has as its target SCD1 (Rattus norvegicus (Rat), UniProt P07308). Description: SCD1 enzymatic assay in rat liver microsomes (RLM). The class given is biochemical. Particulars: for inhibition at 1 µM / % Inh. @ 1 μM: 1 μM test compound. The protocol: Step 1: Preparation of Rat Liver Microsome (RLM)
Sprague Dawley rats from Charles River (200-225 g) underwent 2-cycle of fast-re-feeding (24-hour fast followed by 24-hour feeding with fat-free high carbohydrate diet, Research Diet, D00042802). The livers were removed and homogenized 1:4 (w/v) with pre-chilled, homogenizing buffer (10 mM Tris-HCl, 0.25 M sucrose, 1 mM EDTA, pH 7.4, supplemented with protease inhibitor cocktail). The homogenate was spun at 12,000×g for 15 min at 4° C. The supernatant was then re-centrifuged at 100,000×g for 60 min at 4° C. The pellet was re-suspended in 2 ml pre-chilled […] potassium phosphate buffer, pH 7.2, 10 mM EDTA at a concentration of 20 mg/ml. The resulting rat liver microsome (RLM) preparation was stored at […].
Step 2: SCD1 Enzymatic Assay in RLM:
The SCD1 enzymatic assay was done in a volume of 50 μL using 10 μg of RLM (prepared as described above) in a 96-well polypropylene plate (enzyme reaction buffer contains 0.1 M K-Phosphate Buffer, 10 mM ATP, 6 mM MgCl2, 1 mM CoA, 1 mM β-NADH, 1.6 mM L-glutathione, 20 μM Stearoyl-CoA). Stearoyl-[9,10-^3H]—CoA (ARC-0390, 1 mCi/mL, 60 Ci/mmol,) was added at a final concentration of 2 μCi/mL. Test compound was then added to the reaction mixture at the selected concentration. After incubation at room temperature for 2 hours, 5 μL 1 N HCl was added to stop the reaction, followed by addition of 25 μL of 10% charcoal. The reaction mixture was then transferred to 96-well Multiscreen plate (Millipore, Cat# MSFCN6B50). [^3H2O] was collected into Opti-plate (PE, Cat #6005290) by centrifuge, at 1,000 rpm for 2 minutes. 150 μL Microscint 40 (PE, cat #6013641) was then added to each well and counted on Topcount for [^3H] counts per minute (cpm). The measured cpm values were fitted with Sigmoidal dose-response curve fit with Graphpad Prism.
(In general: Liver microsomes are a subcellular fraction often used to study metabolism.)

Test [2] addresses T1, SCD1 (Homo sapiens (Human), UniProt O00767). Description: SCD1 14C-palmitate assay in A431 cells. Type of test: cell-based. Particulars: read-out: A431 cells 14C-PA IC50. On the procedure: Human epithelial carcinoma A431 cells were seeded at 400,000 cells per well in 48-well tissue culture plate and treated with 2 cycles of fasting in low glucose medium (DMEM, Cellgro #10-014-CV, 1 g/L glucose, 2% Charcoal Filtered FBS) for 24 hours; and re-feeding with high glucose medium for 24 hours (DMEM, Cellgro #10-013-CM, 4.5 g/L glucose, 10% Charcoal Filtered FBS and 0.05 mg/mL Lilly Humulin R, Cat.#, HI-210). Prior to running the assay, the cells were washed twice with high glucose medium (400 μL), followed by addition of 250 μL assay buffer (DMEM, 4.5 g/L glucose, 0.05 mg/mL Human Insulin, 0.1% Fatty Acid Free BSA) to each well. Then, 100 μL of assay buffer containing 20 μM Palmitic Acid, 0.05 μCi ^14C Palmitic Acid (Perkin Elmer, NEC075H) and test compound (at selected concentration) was added to each well. The cells were then Incubated at 37° C. and 5% CO2 tissue culture incubator for 4 hours, followed by extensive washes with pre-chilled PBS. The cell plates were then frozen at −20° C. overnight. After thawing out the plates, 100 μL of 1N KOH was added to each well and the plates were incubated at 37° C. for 30 mins. Cell lysates were transferred to 1 mL Eppendorf tubes and incubated at 95° C. for 1 hour, followed by addition of 10 μL formic acid and 220 μL acetonitrile. The tubes were then centrifuged at 12,000 rpm and the supernatant dried under N2 for 2-3 hours. Dried extract was re-suspended in 60 μL hexane and loaded onto TLC plates (pre-coated with 10% AgNO3 in acetonitrile). The TLC plates were placed into glass running chamber containing 200 mL running solution (100 mL running solution: 92.5 mL chloroform, 6 mL methanol, 750 μL acetic acid, 750 μL dH2O). After running, the TLC plates were air dried and scanned on Bioscan AR-2000 for quantification of ^14C-palmitioleate and ^14C-palmitate peaks. Area under the curve of the peaks were used to calculate product/substrate ratio, an index of SCD1 activity.

Test [3] has as its target T1, SCD1. Description: SCD1 13C-palmitic acid assay in A431 cells. The class given is cell-based. Particulars: read-out: A431 cells 13C-PA IC50. The protocol:
Human epithelial carcinoma A431 cells were seeded at 100,000 cells/well in complete growth medium (DMEM, Cellgro #10-013-CM, 4.5 g/L glucose, 10% FBS) in the presence of 0.05 mg/mL human insulin (Hannas Pharmaceutical Supply Co Inc, Humanlin 100 U/ml, 4 mg/ml) in 96-well tissue culture plate. […] The cells were then returned to the tissue culture incubator (37° C. and 5% CO2) for 4 hrs. At the end of incubation, the cells were washed three times with 200 μL/well Hanks buffer (HBSS) and then stored at −20° C. until extraction.
For fatty acid extraction, after thawing out the plates, 40 μL of 1N KOH (containing 5 μM of internal standard 7,7,8,8-D4 palmitate) was added to each well and cell plates were incubated at 37° C. for 30 minutes. […] Acetonitrile (100 μL) was then added to extract fatty acids, followed by centrifugation at 3000 rpm for 10 minutes. 75 μL of extract was then transferred to a new glass vial in a 96-well cluster plate. 5 μL was injected for LC/MS analysis for detection of ^13C-palmitic acid and ^13C-palmitoleic acid. Formation of product ^13C-palmitoleic acid was determined as an index of SCD1 activity.
LC/MS analysis was performed as following. An Agilent 1100 Liquid Chromatographic System (Palo Alto, Calif.) consisting of a binary pump, a degasser and an autosampler was used. Separation of free fatty acids was performed on a Zorbax SB—C8 column (2.1×50 mm, particle size=3.5 μm). An isocratic elution was carried out with 10 mM triethylamine acetate in water:acetonitrile (3:7) at a flow rate of 0.3 mL/min. The column temperature was set at 30° C. and the sample injection volume was 5 μL. The LC run cycle was 4 min, A Micromass triple-quadrupole Quattro Micro mass […] (Waters, Beverly, Mass.) was interfaced with the LC system through a Z-spray electrospray ion source and was operated in the negative ion mode. Nitrogen was used as nebulizing gas, desolvation gas and cone curtain gas and argon was chosen as collision gas. The triple quadrupole MS source parameters were set as follows: capillary voltage, 3200V; cone voltage, 25V; extractor 2V, source temperature, 120° C.; desolvation temperature, 300° C.; cone gas flow, 50 L/h; and desolvation gas flow, 700 L/h. […] MassLynx software version 4.0 was used for system control and data processing. The signal of U—^13C-palmitoleic acid was normalized to an internal standard.

Molecules are shown by their SMILES. pIC50: −log10 of the molar value. Several values for one entry are separate records, joined by “and”; a condition that tells them apart may be missing. Identical values can stand only once.

Sequence of SCD1 (Rattus norvegicus (Rat), UniProt P07308) (P07308 whole entry): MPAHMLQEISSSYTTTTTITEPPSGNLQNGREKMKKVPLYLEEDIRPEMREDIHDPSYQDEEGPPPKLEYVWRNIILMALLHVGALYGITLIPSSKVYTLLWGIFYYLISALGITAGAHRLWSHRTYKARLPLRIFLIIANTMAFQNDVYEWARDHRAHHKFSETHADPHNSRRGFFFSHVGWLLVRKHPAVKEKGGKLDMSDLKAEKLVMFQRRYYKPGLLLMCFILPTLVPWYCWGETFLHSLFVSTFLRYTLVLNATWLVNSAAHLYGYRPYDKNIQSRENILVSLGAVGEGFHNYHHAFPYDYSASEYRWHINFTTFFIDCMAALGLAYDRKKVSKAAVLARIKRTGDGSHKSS
T1 sequence (O00767 whole entry): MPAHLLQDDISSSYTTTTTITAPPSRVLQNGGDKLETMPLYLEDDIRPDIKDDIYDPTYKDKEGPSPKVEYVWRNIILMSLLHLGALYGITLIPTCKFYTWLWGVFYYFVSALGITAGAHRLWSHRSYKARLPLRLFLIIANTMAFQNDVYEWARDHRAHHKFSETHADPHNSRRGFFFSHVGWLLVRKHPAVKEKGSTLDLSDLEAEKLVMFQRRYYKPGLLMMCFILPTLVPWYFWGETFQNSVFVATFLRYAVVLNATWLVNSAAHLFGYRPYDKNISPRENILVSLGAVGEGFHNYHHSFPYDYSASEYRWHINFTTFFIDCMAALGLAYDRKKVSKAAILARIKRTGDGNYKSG

One may read the pIC50 as the IC50 on a negative log10 scale, so that one unit is a factor of ten. Broadly, the inhibition is the drop in the measured response relative to a control, in per cent. On to `Cc1csc(NC(=O)N2CCC(N3CCCc4ccccc43)CC2)n1` [Compound 13, 4-(3,4-dihydroquinolin-1(2H)-yl)-N-(4-methylthiazol-2-yl)piperidine-1-carboxamide], for which the values for the pIC50 in test [1] and in test [2] were 6.31 and 6.07, respectively. In addition, the inhibition at 1 µM in test [1] was found to be 81%.

As for `CCCc1nc2ccc(NC(=O)N3CCC(c4noc5ccc(F)cc45)CC3)cc2s1` [Compound 9, 4-(5-fluorobenzo[d]isoxazol-3-yl)-N-(2-propylbenzo[d]thiazol-6-yl)piperidine-1-carboxamide], the pIC50 was 6.35 in test [1] and 6.19 in test [2]. Moreover, the inhibition at 1 µM in test [1] was determined as 79%.

On to `Cc1csc(NC(=O)N2CCC(n3ccc4ccccc43)CC2)n1` [Compound 4, 4-(1H-indol-1-yl)-N-(4-methylthiazol-2-yl)-piperidine-1-carboxamide], for which, in test [1], the negative logarithm of the IC50 (pIC50) was 6.24 and 6.30; the inhibition at 1 µM worked out at 70%. The pIC50 in test [2] was 6.68 and 6.49.

`CNC(=O)c1cccc(NC(=O)N2CCC(c3noc4ccc(F)cc34)CC2)c1` [Compound 5]: in test [1], the pIC50 is 6.38 and the inhibition at 1 µM was found to be 74%. The negative-log IC50 (pIC50) in test [2] was 6.15 and 6.14.

In the case of `O=C(Nc1nc2c(s1)CC(O)CC2)N1CCC(N2CCc3ccc(F)cc32)CC1` (stereo not drawn) [Compound 33, 4-(6-fluoroindolin-1-yl)-N-(6-hydroxy-4,5,6,7-tetrahydrobenzo[d]thiazol-2-yl)piperidine-1-carboxamide], in test [1], the pIC50 was 8.15 and 7.70; the “% Inh. @ 1 μM” value is 99%; the inhibition at 1 µM came to 97%. For the same molecule, the pIC50 in test [3] was > 9.00 and 9.00.

`CCOC(=O)Cc1csc(NC(=O)N2CCC(N3CCc4ccc(F)cc43)CC2)n1` [Compound 27, ethyl 2-(2-(4-(6-fluoroindolin-1-yl)piperidine-1-carboxamido)thiazol-4-yl)acetate]: in test [1], the pIC50 is 6.54 and the inhibition at 1 µM was found to be 80%. Also, the negative logarithm of the IC50 (pIC50) in test [3] was below 6.00.

Consider `Cc1csc(NC(=O)N2CCC(N3CCc4ccccc43)CC2)n1` [Compound 3, 4-(indolin-1-yl)-N-(4-methylthiazol-2-yl)piperidine-1-carboxamide], for which, in test [1], the pIC50 is 6.79 and 6.84; the “% Inh. @ 1 μM” value amounted to 76%; the inhibition at 1 µM was determined as 70%. Moreover, the pIC50 in test [2] is 6.09 and 6.42.

In the case of `CNC(=O)c1cccc(NC(=O)N2CCC(N3CCc4ccccc43)CC2)c1` [Compound 12, 4-(indolin-1-yl)-N-(3-(methylcarbamoyl)phenyl)piperidine-1-carboxamide], in test [1], the pIC50 was 6.82 and the inhibition at 1 µM amounted to 82%. Moreover, the pIC50 in test [2] is 6.12.

As for `CNC(=O)c1cccc(NC(=O)N2CCC(n3ccc4ccccc43)CC2)c1` [Compound 2, 4-(1H-indol-1-yl)-N-(3-(methylcarbamoyl)phenyl)piperidine-1-carboxamide], in test [1], the pIC50 was 6.77 and the inhibition at 1 µM was found to be 84%. The pIC50 in test [2] was 6.42.

As to `NC(=O)c1cccc(NC(=O)N2CCC(c3noc4ccc(F)cc34)CC2)c1` [Compound 17, N-(3-carbamoylphenyl)-4-(5-fluorobenzo[d]isoxazol-3-yl)piperidine-1-carboxamide], the negative logarithm of the IC50 (pIC50) in test [1] was 6.68; in test [3], 6.56. Moreover, the inhibition at 1 µM in test [1] is 84%.

On to `O=C(Nc1nc2c(s1)CC(O)CC2)N1CCC(c2noc3ccc(F)cc23)CC1` (stereo not drawn) [Compound 60, 4-(5-fluorobenzo[d]isoxazol-3-yl)-N-(6-hydroxy-4,5,6,7-tetrahydrobenzo[d]thiazol-2-yl)piperidine-1-carboxamide], for which, in test [1], the pIC50 is 7.41 and the inhibition at 1 µM was 98%. Moreover, the pIC50 in test [3] was 9.00.

`Cc1csc(NC(=O)N2CCC(N3CCc4ccc(F)cc43)CC2)n1` [Compound 20, 4-(6-fluoroindolin-1-yl)-N-(4-methylthiazol-2-yl)piperidine-1-carboxamide]: the pIC50 in test [1] is 7.59; in test [3] it was 7.68. The inhibition at 1 µM in test [1] was 98%.

As to `NC(=O)c1cnc(NC(=O)N2CCC(N3CCc4ccc(F)cc43)CC2)s1` [Compound 15, 2-(4-(6-fluoroindolin-1-yl)piperidine-1-carboxamido)thiazole-5-carboxamide], in test [1], the pIC50 was 7.66 and the inhibition at 1 µM is 101%. The pIC50 in test [3] is 7.31.

As for `NC(=O)c1cccc(NC(=O)N2CCC(n3ncc4c(F)cccc43)CC2)c1` [Compound 39, N-(3-carbamoylphenyl)-4-(4-fluoro-1H-indazol-1-yl)piperidine-1-carboxamide], in test [1], the pIC50 is 7.06 and 7.23; the “% Inh. @ 1 μM” value is 86, 86%; the inhibition at 1 µM worked out at 86%. Moreover, the pIC50 in test [3] is 6.54 and 6.83.

As to `Cc1cnc(NC(=O)N2CCC(N3CCc4ccc(F)cc43)CC2)s1` [Compound 21, 4-(6-fluoroindolin-1-yl)-N-(5-methylthiazol-2-yl)piperidine-1-carboxamide], in test [1], the pIC50 is 7.09 and the inhibition at 1 µM was determined as 83%. The pIC50 in test [3] was 6.97.

For `O=C(Nc1nc2c(s1)COCC2)N1CCC(c2noc3ccc(F)cc23)CC1` [Compound 63, N-(6,7-dihydro-4H-pyrano[4,3-d]thiazol-2-yl)-4-(5-fluorobenzo[d]isoxazol-3-yl)piperidine-1-carboxamide], the pIC50 is 7.07 in test [1] and 6.75 in test [3]. The inhibition at 1 µM in test [1] came out at 55%.
